The source of these data is PMC4176484, “Comparative study of four immortalized human brain capillary endothelial cell lines, hCMEC/D3, hBMEC, TY10, and BB19, and optimization of culture conditions, for an in vitro blood–brain barrier model for drug permeability studies” (Fluids and Barriers of the CNS, 2013).

The test system of one data set is hBMEC mono-cultures. Description: Maximal TEER of hBMEC mono-cultures under different culture conditions, CellZscope. Particulars: collagen type I coating.
Data set [1] is described as follows: Paracellular permeability (Papp) of marker compounds through TY10 mono-cultures on 24-well inserts. It is filed as in vitro ADME. Particulars: human, pH 7.4, TY10 monolayers (33°C 2 days, then 37°C 2 days), Greiner Bio-one transparent PET 3.0 μm inserts, mean ± S.E.M. How it is done:
(§1) To further assess tight junction (TJ) integrity of endothelial cell layers, paracellular permeabilities of Na-F (MW 376.27) and LY (MW 550.39) were measured. These two fluorescent, non-P-glycoprotein (P-gp) substrate molecules have low BBB penetration and are widely used as barrier integrity markers for in vitro models. To obtain comparative data, hCMEC/D3 cells, hBMEC cells, and TY10 cells were seeded onto 24-well tissue culture inserts (Greiner Bio-one®, transparent polyethylene terephthalate (PET) membrane, 3.0 μm pore size, 0.6 × 10^6 pores/cm^2) and incubated at 37°C (5% CO2) (except TY10 cells) inside the CellZscope cell module (Figure 2). […]
TEER and CCL values before and after the assays were monitored continuously for integrity control. […]
(§2) For the permeability assay, tissue culture inserts were transferred into a 24-well plate containing 700 μL of pre-warmed (37°C) Ringer HEPES buffer (150 mM NaCl, 2.2 mM CaCl2, 0.2 mM MgCl2, 5.2 mM KCl, 2.8 mM glucose, 5 mM HEPES, and 6 mM NaHCO3, pH 7.4) in each well (basolateral compartment). […] Quantification of fluorescence (Na-F: excitation 490 nm, emission 514 nm; LY: excitation 430 nm, emission 535 nm) was carried out using a Chameleon microplate reader (Hidex, Turku, Finland). The apparent permeability coefficient (Papp) for Na-F and LY was calculated in centimeters/second (cm/s) according to the equation: […]

The nature of data set [2]: Recovery (mass balance) in permeability assays through mono-cultures. The format is in vitro ADME. To be noted: human, pH 7.4; all mono-culture permeability experiments (hCMEC/D3, hBMEC, TY10). The procedure: as §2, with “compartment). Medium in inserts (apical compartment) was then replaced with 300 μL of a pre-warmed (37°C) working solution containing Na-F or LY at 10 μg/mL in Ringer HEPES buffer. The 24-well plate was incubated at 37°C on an orbital shaker (ELMI DTS-2, Riga, Latvia) with moderate speed (100 rpm) and aliquots of 250 μL of both apical and basolateral compartments were collected after 1 h.” for “compartment).”
(§3) Recovery (mass balance) of Na-F and LY was calculated with the following equation: […]
[43] where CAf and CBf are the final concentrations of the compound in the apical and basolateral compartment, respectively, CA0 is the initial concentration in the apical compartment, and VA and VB are the volumes in the apical and basolateral compartments, respectively. All results are expressed as means ± S.E.M.

A short description of data set [3]: Paracellular permeability (Papp) of marker compounds through hBMEC mono-cultures on 24-well inserts. The format is in vitro ADME. To be noted: human, mean ± S.E.M. The procedure: (§4) To further assess tight junction (TJ) integrity of endothelial cell layers, paracellular permeabilities of Na-F (MW 376.27) and LY (MW 550.39) were measured. These two fluorescent, non-P-glycoprotein (P-gp) substrate molecules have low BBB penetration and are widely used as barrier integrity markers for in vitro models. To obtain comparative data, hCMEC/D3 cells, hBMEC cells, and TY10 cells were seeded onto 24-well tissue culture inserts (Greiner Bio-one®, transparent polyethylene terephthalate (PET) membrane, 3.0 μm pore size, 0.6 × 10^6 pores/cm^2) and incubated at 37°C (5% CO2) (except TY10 cells) inside the CellZscope cell module (Figure 2). For TY10, the CellZscope system was first put at 33°C (5% CO2) for 2 days and was thereafter transferred to 37°C (5% CO2) for 2 days prior to the permeability assay (Figure 3D). Cell seeding density for hCMEC/D3 and hBMEC was 6.0 × 10^4 cells/cm^2, and for TY10 it was 3.0 × 10^4 cells/cm^2. For hBMEC, contact co-culture models with SVG-A cells (9.0 × 10^4 cells/cm^2) or HBPCT cells (6.0 × 10^4 cells/cm^2) on the basal side of the coated filter membranes were tested.
TEER and CCL values before and after the assays were monitored continuously for integrity control. All experiments for Na-F permeability were carried out at the time indicated with a black arrow in Figures 3A-D. For LY permeability assessment, TEER values were in the same range (graphs not shown). […]
as §2

Data set [4] is described as follows: Paracellular permeability (Papp) of marker compounds through hCMEC/D3 mono-cultures on 24-well inserts. The format is in vitro ADME. To be noted: human, Greiner Bio-one transparent PET 3.0 μm inserts, mean ± S.E.M. How it is done:
as §4
TEER and CCL values before and after the assays were monitored continuously for integrity control. All experiments for Na-F permeability were carried out at the time indicated with a black arrow in Figures 3A-D. For LY permeability assessment, TEER values were in the same range (graphs not shown). BB19 cells were not included in this permeability study since TEER values were extremely low.
For the permeability assay, tissue culture inserts were transferred into a 24-well plate containing 700 μL of pre-warmed (37°C) Ringer HEPES buffer (150 mM NaCl, 2.2 mM CaCl2, 0.2 mM MgCl2, 5.2 mM KCl, 2.8 mM glucose, 5 mM HEPES, and 6 mM NaHCO3, pH 7.4) in each well (basolateral compartment). Medium in inserts (apical compartment) was then replaced with 300 μL of a pre-warmed (37°C) working solution containing Na-F or LY at 10 μg/mL in Ringer HEPES buffer. The 24-well plate was incubated at 37°C on an orbital shaker (ELMI DTS-2, Riga, Latvia) with moderate speed (100 rpm) and aliquots of 250 μL of both apical and basolateral compartments were collected after 1 h. All experiments were performed at least in triplicate. Quantification of fluorescence (Na-F: excitation 490 nm, emission 514 nm; LY: excitation 430 nm, emission 535 nm) was carried out using a Chameleon microplate reader (Hidex, Turku, Finland). The apparent permeability coefficient (Papp) for Na-F and LY was calculated in centimeters/second (cm/s) according to the equation: […]

A short description of data set [5]: Paracellular permeability (Papp) through hBMEC contact co-culture with HBPCT pericytes. The format is in vitro ADME. To be noted: human, mean ± S.E.M. The procedure: as §1, §2
Data set [6] is described as follows: Recovery (mass balance) in permeability assays through hBMEC mono-cultures and contact co-cultures. To be noted: human, pH 7.4; all hBMEC mono-culture / co-culture experiments with SVG-A or HBPCT. It is filed as in vitro ADME. The procedure: as §1, §2, §3
The nature of data set [7]: Paracellular permeability (Papp) through hBMEC contact co-culture with SVG-A astrocytes. The format is in vitro ADME. To be noted: human, mean ± S.E.M. The procedure:
as §1, §2

[8] abbreviates: pH 7.4, hBMEC mono-culture, growth medium 20% FBS, Greiner Bio-one transparent PET 3.0 μm inserts, 10 μg/mL apical, 1 h, 37°C.
[9] abbreviates: pH 7.4, hCMEC/D3 cultivated with growth medium containing 20% FBS.
[10] abbreviates: pH 7.4, hCMEC/D3 grown with initial medium containing 5% FBS.

With `C[C@]12CCC(=O)C=C1CC[C@@H]1[C@@H]2[C@@H](O)C[C@@]2(C)[C@H]1CC[C@]2(O)C(=O)CO` [HC, hydrocortisone], the “Mean max. TEER ± S.E.M.” value with hBMEC mono-cultures (growth medium with additional HC 500 nM for 3 days (only apical), 4.5 × 10^4 cells/cm^2, at 3.19 d) was 43.2 (± 4.27) Ωcm^2; with hBMEC mono-cultures (growth medium with additional HC 1500 nM for 3 days (only apical), 4.5 × 10^4 cells/cm^2, at 3.19 d), 40.4 (± 0.646) Ωcm^2.
With `C=CS(=O)(=O)c1cccc(N2C(=O)c3cc(S(=O)(=O)[O-])cc4c(N)c(S(=O)(=O)[O-])cc(c34)C2=O)c1.[Li+].[Li+]` [LY, Lucifer Yellow VS dilithium salt], the Papp at 1 h, 10 μg/mL in data set [1] came to 9.68 ± 0.413 ×10⁻⁶ cm/s; in data set [3] (setting [8]), 5.39 ± 0.364 ×10⁻⁶ cm/s; in data set [4] (setting [9]) it was 11.7 ± 0.957 ×10⁻⁶ cm/s; in data set [4] (setting [10]), 10 ± 0.498 ×10⁻⁶ cm/s. The compound further registered a recovery at 1 h, 10 μg/mL in data set [2] of 66 to 79%.
As for `O=C([O-])c1ccccc1-c1c2ccc(=O)cc-2oc2cc([O-])ccc12.[Na+].[Na+]` [Na-F, sodium fluorescein], the Papp at 1 h, 10 μg/mL in data set [1] turned out to be 12.4 ± 0.155 ×10⁻⁶ cm/s; in data set [5] (pH 7.4, hBMEC co-cultured with HBPCT, medium deprived of growth factors, n = 3), 7.22 ± 0.455 ×10⁻⁶ cm/s; in data set [5] (pH 7.4, hBMEC contact co-culture with HBPCT, medium with growth factors), 8.26 ± 0.893 ×10⁻⁶ cm/s; in data set [3] (setting [8]), 5.08 ± 0.22 ×10⁻⁶ cm/s; in data set [3] (pH 7.4, hBMEC monolayers cultured without growth factors, n = 3) it was 5.11 ± 0.0487 ×10⁻⁶ cm/s; in data set [4] (setting [9]) it was 13.4 ± 0.484 ×10⁻⁶ cm/s. The Papp at 1 h, 10 μg/mL in data set [4] (setting [10]) turned out to be 12.5 ± 0.326 ×10⁻⁶ cm/s; in data set [7] (pH 7.4, hBMEC co-cultured with SVG-A, medium deprived of growth factors, n = 3) it was 6.88 ± 0.516 ×10⁻⁶ cm/s; in data set [7] (pH 7.4, hBMEC contact co-culture with SVG-A, medium with growth factors), 7.43 ± 0.2 ×10⁻⁶ cm/s. The recovery at 1 h, 10 μg/mL was in the range of 75 to 87% in data set [2] and 98 to 102% in data set [6].
Consider `C[C@@H]1C[C@H]2[C@@H]3CCC4=CC(=O)C=C[C@]4(C)[C@@]3(F)[C@@H](O)C[C@]2(C)[C@@]1(O)C(=O)CO` [dexamethasone], for which the “Mean max. TEER ± S.E.M.” value in the data set with hBMEC mono-cultures (growth medium with dexamethasone 500 nM for 3 days (only apical), 9.0 × 10^4 cells/cm^2, at 4.15 d) was 35.9 (± 0.338) Ωcm^2; in the data set on hBMEC mono-cultures (growth medium with dexamethasone 1000 nM for 3 days (only apical), 9.0 × 10^4 cells/cm^2, at 4.15 d), 38.0 (± 1.26) Ωcm^2.
With human epidermal growth factor [hEGF], the “Mean max. TEER ± S.E.M.” value in the data set on hBMEC mono-cultures (growth medium with additional hEGF 50 ng/mL for 3 days (only apical), 9.0 × 10^4 cells/cm^2, at 4.15 d) is recorded as 36.4 (± 0.902) Ωcm^2; in the data set with hBMEC mono-cultures (growth medium with additional hEGF 100 ng/mL for 3 days (only apical), 9.0 × 10^4 cells/cm^2, at 4.15 d), 40.0 (± 1.94) Ωcm^2.
